# Test results published in patent US20180037909A1, “MODIFIED CANCER CELL LINES AND USES THEREOF” (Chang Gung Memorial Hospital, Linkou, priority 2016, published 2018).
# Experiments:
# ST3Gal1 mRNA = ST3Gal1 mRNA expression by qPCR, normalized to GAPDH mRNA; assay type: cell-based; conditions: MDA-MB-231 breast cancer cells; for expression of ST3Gal1 RNA compared to sc RNA, siRNA-A or pVoid transfected cells: FIG. 8A-8C
# Method: MDA-MB-231 breast cancer cells (available from Bioresource Collection and Research Center, Taiwan) were transfected with scramble siRNA (sc) or ST3Gal1 (si) siRNA with an antisense strand (SEQ ID NO:2) and a sense strand (SEQ ID NO:3). The expression levels of the ST3Gal1 mRNA were analyzed by qPCR analysis and normalized to GAPDH mRNA levels.
# MDA-MB-231 breast cancer cells were transfected with scramble siRNA (sc), a vector without shRNA (pVoid), shRNA1-3 (SEQ ID NO:11), shRNA 1-4 (SEQ ID NO:12), or the siRNA listed in Table 1 below:
# The expression levels of the ST3Gal1 mRNA were analyzed by qPCR analysis and normalized to GAPDH mRNA levels.
# MCF7 breast cancer cells = test: Cell growth monitored by xCELLigence System; assay type: cell-based; conditions: FIG. 9
# Method: An in vitro evaluation of the effect of ST3Gal1 siRNA (to knock down ST3Gal1 expression) and anti-cancer agent was performed using breast cancer cells.
# MCF7 breast cancer cells were treated with one of the regimes in Table 2 and cell growth was monistored by xCELLigence System (ACEA Biosciences, Inc., USA)
# [1] = molecular target: CD55 from MDA-MB-231 breast cancer cells transfected with ST3Gal1 siRNA (UniProt P08174); test: CD55 signal in PNA precipitate of lysate, ST3Gal1 siRNA cells against scramble siRNA cells
# CD46 and CD59 = test: Western blot of CDC regulatory proteins; assay type: cell-based; conditions: breast cancer cells; FIG. 2B
# Description: In addition, the expression levels of CD46 or CD59 were unaffected in breast cancer cells transfected with ST3Gal1 siRNA.
# CD55 [2] = test: PNA lectin blot / PNA precipitation of cell lysates with mass spectrometry and CD55 blot; assay type: cell-based; conditions: breast cancer cells
# Method: To examine the protein target of ST3Gal1 in breast cancer cells, total cell lysates from scramble or ST3Gal1 siRNA treated breast cancer cells were prepared for PNA lectin blot analysis after precipitation with agarose bound PNA. ST3Gal1 catalyzes the sialylation of galactosyl (β-1, 3) N-acetylgalactosamine, by adding sialic acid to Core 1 O-glycans. Since Peanut agglutinin (PNA) binds preferentially to Core 1 O-glycans (without the added sialic acid), ST3Gal1 knock down is expected to increase PNA binding to Core 1 O-glycans.
# As expected, PNA-binding signals in breast cancer cells increased at about 72, 130 and 250 kDa molecular weight, after ST3Gal1 knock down (FIG. 1B). Using in-gel digestion and LTQ-FTD MASS spectrometry, CD55 was identified as one of the PNA-binding proteins with increased signal (by 2.6 folds) after ST3Gal1 knock down and the molecular weight of CD55 is slightly lower in ST3Gal1 silenced cells (FIG. 1C). However, the total CD55 protein levels remained similar (sc vs. si: 1.0 vs. 1.1) (FIG. 1D).
# [3] = system: mCRPs (CD46, CD55, and CD59) and target antigens (HLA and SSEA4); test: FACS expression of membrane complement regulatory proteins and target antigens; assay type: cell-based; conditions: MDA-MB-231, four days after transfection
# Description: (§1) MDA-MB-231 breast cancer cells were transfected with scramble RNA (sc) or ST3Gal1 siRNA (si) according to Example 1. After four days, cells were collected and analyzed for the expression of membrane complement regulatory proteins (mCRPs) and target antigen by fluorescence-activated cell sorting (FACS). There was no change in the expression levels of mCRPs (CD46, CD55, and CD59) and target antigens (HLA and SSEA4) with ST3Gal1 silencing.
# [4] = system: C3 deposit on breast cancer cells; test: C3 deposition on cancer cell surface by flow cytometry with anti-C3 antibody; assay type: cell-based; conditions: human serum, non-lytic conditions
# Method: An in vitro evaluation was performed to assess the decay-accelerating ability of ST3Gal1 silenced breast cancer cells with de-sialylated CD55, by measuring the deposition of C3 fragments on the cancer cell surface.
# Breast cancer cells were incubated under non-lytic conditions with human serum and deposited C3 were detected by flow cytometric analysis using anti-C3 antibody. […] There is minimal C3 deposit in both scramble RNA (sc) and ST3Gal1 siRNA (si) transfected breast cancer cells in the absence of anti-HLA antibody (geometric mean fluorescence: sc, 31.5±0.2×10^3; si, 35.2±0.6×10^3).
# [5] = system: Prostate cancer cells (PC3); test: AlamarBlue cell proliferation assay; assay type: cell-based; conditions: fluorescence 590 nm, FIG. 7A
# Method: (§2) Prostate cancer cells (PC3, Bioresource Collection and Research Center, Taiwan) and neuroblastoma cells (SH-SY5Y, obtained from Professor Yi-Cheng Chen, Mackay Medical College, Taiwan) were transfected with a scramble RNA (sc) or ST3Gal1 siRNA (si) according to Example 1. The cell proliferation was determined by AlamarBlue assay using Victor X3 plate reader to measure the fluorescence (590 nm) that was used to present the level of cell proliferation.
# [6] = system: neuroblastoma cells (SH-SY5Y); test: AlamarBlue cell proliferation assay; assay type: cell-based; conditions: fluorescence 590 nm, FIG. 7B
# Method: as §2
# MDA-MB-231 cells = test: ADCC assay with human PBMC effectors and anti-SSEA4 antibody; assay type: cell-based; conditions: anti-SSEA4 antibody, Effector:Target ratio 10:1
# Method: as §1
# ADCC assay was performed using human PBMC cells as effectors, anti-SSEA4 as antibody, and ST3Gal1siRNA transfected MDA-MB-231 cells as targets. […] The mean percentages of lysis are 24.2±1.7% and 41.5±2.4% for sc and si, respectively at Effector:Target ratio of 10:1 ratio (E/T10), and the difference is statistically significant.
# CD55 [7] = test: LC-MS/MS analysis of released, permethylated O-glycans of CD55; conditions: ST3Gal1 silenced vs sc transfected breast cancer cells
# Description: The bi- and tri-antennary structures were all detected as glycoforms of the expected tryptic peptide […], previously reported as the single N-linked glycosylation site. […] The sialylation of core 1 and core 2 O-glycan on CD55 regulates the activity of CD55.
# Impairment of 2-3-sialylation of the O-glycans of the CD55 molecule increases non-sialylated core 1 and monosialylated core 2, at the expenses of disialylated core 2 structure. On the other hand, the relative amount of the monosialylated core 1 O-glycan of the CD55 molecule (m/z 895.462) was similar in ST3Gal1 silenced and sc transfected breast cancer cells, probably due to compensation of 2-6-sialylation.
# Sequence of UniProt P08174 (P08174 35-353 limits assumed): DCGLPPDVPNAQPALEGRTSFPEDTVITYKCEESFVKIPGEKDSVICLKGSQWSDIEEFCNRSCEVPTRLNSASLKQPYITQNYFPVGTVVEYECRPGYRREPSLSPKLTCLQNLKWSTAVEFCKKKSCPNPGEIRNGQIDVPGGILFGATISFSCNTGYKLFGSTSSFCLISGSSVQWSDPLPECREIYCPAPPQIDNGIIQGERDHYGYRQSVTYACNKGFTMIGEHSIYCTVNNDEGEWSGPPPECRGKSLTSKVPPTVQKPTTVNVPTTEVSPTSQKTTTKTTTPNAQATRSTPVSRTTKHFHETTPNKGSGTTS
compound,measurement,setting,value
shRNA1-3: shRNA1-3 (SEQ ID NO:11) (CCGGGCTGGGAGATAATGTCAGCATCTCGAGATGCTGACATTATCTCCCAGCTTTTTG),"expression of ST3Gal1 RNA compared to sc RNA, siRNA-A or pVoid transfected cells",ST3Gal1 mRNA,reduced
"siRNA-3: siRNA, antisense UUGAGAAGAUGACCGAGAGGAUGCC (SEQ ID NO: 8), sense GGCAUCCUCUCGGUCAUCUUCUCAA (SEQ ID NO: 9) (listed as RNA, chemistry not given here)","expression of ST3Gal1 RNA compared to sc RNA, siRNA-A or pVoid transfected cells",ST3Gal1 mRNA,reduced
CC/C(=C(\c1ccccc1)c1ccc(OCCN(C)C)cc1)c1ccccc1 [tamoxifen],Cancer cell viability,MCF7 breast cancer cells,76%
"siRNA-1: siRNA, antisense AUCUCAGGCCCAUAAGAAGACUCCC (SEQ ID NO: 4), sense GGGAGUCUUCUUAUGGGCCUGAGAU (SEQ ID NO: 5) (listed as RNA, chemistry not given here)","expression of ST3Gal1 RNA compared to sc RNA, siRNA-A or pVoid transfected cells",ST3Gal1 mRNA,reduced
Peanut agglutinin (PNA) (from UniProt P02872 24-259),fold increase of signal after ST3Gal1 knock down (against scramble siRNA cells),[1],2.6 fold
COc1cc2c(Nc3ccc(Br)cc3F)ncnc2cc1OCC1CCN(C)CC1 [vandetanib],Cancer cell viability,MCF7 breast cancer cells,37.5%
"siRNA-2: siRNA, antisense UCAUGCUGACAUUAUCUCCCAGCUC (SEQ ID NO: 6), sense GAGCUGGGAGAUAAUGUCAGCAUGA (SEQ ID NO: 7) (listed as RNA, chemistry not given here)","expression of ST3Gal1 RNA compared to sc RNA, siRNA-A or pVoid transfected cells",ST3Gal1 mRNA,reduced
shRNA1-4: shRNA 1-4 (SEQ ID NO:12) (CCGGGCGGGAGAAGAAGCCCAATAACTCGAGTTATTGGGCTTCTTCTCCCGCTTTTTG),"expression of ST3Gal1 RNA compared to sc RNA, siRNA-A or pVoid transfected cells",ST3Gal1 mRNA,reduced
"ST3Gal1 siRNA: ST3Gal1 siRNA with an antisense strand (SEQ ID NO:2) and a sense strand (SEQ ID NO:3) (sense CCGGUUCCUGCAAAGAUCAGAGUGA; antisense UCACUCUGAUCUUUGCAGGAACCGG; listed as RNA, chemistry not given here)",expression levels of CD46 or CD59,CD46 and CD59,unaffected
same,increase of CD55 PNA-binding signal after ST3Gal1 knock down,CD55 [2]; FIG. 1C,2.6 folds
same,total CD55 protein levels (sc = 1.0),CD55 [2]; FIG. 1D,1.1
same,"expression levels of mCRPs (CD46, CD55, CD59) and target antigens (HLA, SSEA4)",[3],no change
same,"expression of ST3Gal1 RNA, % of that of sc transfected breast cancer cells",ST3Gal1 mRNA; normalized to GAPDH mRNA,28.5±8.2%
same,"C3 deposit, geometric mean fluorescence",[4]; 10 μg/ml anti-HLA antibody,89.5±5.5×10^3
same,"C3 deposit, geometric mean fluorescence",[4]; 25 μg/ml anti-HLA antibody,164.8±0.8×10^3
same,"C3 deposit, geometric mean fluorescence",[4]; absence of anti-HLA antibody,35.2±0.6×10^3
same,proliferation of prostate cancer cells compared to sc RNA,[5],significantly reduced
same,proliferation of neuroblastoma cells compared to sc RNA,[6],significantly reduced
same,mean percentage of lysis (ADCC),MDA-MB-231 cells,41.5±2.4%
same,Cancer cell viability,MCF7 breast cancer cells,65%
same,relative amount of monosialylated core 1 O-glycan of CD55 (m/z 895.462),CD55 [7],similar
same,relative amount of disialylated core 2 structure at m/z 864.426 (2+) on CD55,CD55 [7]; FIG. 6B,significantly reduced
same,relative amount of monosialylated core 2 structure at m/z 683.839 (2+) on CD55,CD55 [7]; FIG. 6B,increased
